Assay results from US20240381872A1, “SUBSTITUTED 2,3-DIHYDRO[1,3]THIAZOLO[4,5-B]PYRIDINES, SALTS THEREOF AND THEIR USE AS HERBICIDALLY ACTIVE SUBSTANCES” (BAYER AKTIENGESELLSCHAFT, priority 2021, published 2024).

How the values were obtained:
Format in all cases: in vivo
Lolium rigidum (LOLRI) = assay: Herbicidal pre-emergence action, section A (Table A5); conditions: visual grading after ca. 3 weeks vs untreated controls; for pest or weed control at 1280 g/ha: application rate 1280 g/ha
Outline: (§1)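 Weeds sown in sandy loam, then WP or EC formulations applied pre-emergence to the soil surface as aqueous spray with 0.5% additive at 600 L water/ha. Pots kept in the greenhouse, and damage graded visually after ~3 weeks as % effect against untreated controls (100% = dead).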

Poa annua (POAAN) [1] = assay: Herbicidal pre-emergence action, section A (Table A7); conditions: application rate 320 g/ha, visual grading after ca. 3 weeks vs untreated controls; for pest or weed control at 320 g/ha: Poa annua, pre-emergence, 504 h, read-out: pre-emergence activity against POAAN in %
Outline: as §1

[2] = tested on: Amaranthus retroflexus (AMARE); assay: Herbicidal post-emergence action, section B (Table B11); conditions: visual rating about 3 weeks after treatment vs untreated controls; for pest or weed control at 1280 g/ha / pest or weed control at 320 g/ha: Amaranthus retroflexus, post-emergence, 504 h, read-out: post-emergence activity against AMARE in %; for pest or weed control at 1280 g/ha: application rate 1280 g/ha; for post-emergence activity against AMARE in % / pest or weed control at 320 g/ha: application rate 320 g/ha
Outline: (§2)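 Potted weeds in sandy loam are treated post-emergence at the one-leaf stage, 2 to 3 weeks after sowing. The spray is an aqueous WP or EC preparation with 0.5% additive at 600 liters per hectare. Percent activity is assessed by eye after about 3 weeks versus untreated controls.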

[3] = tested on: Matricaria inodora (MATIN); assay: Herbicidal pre-emergence action, section C (Table C6); conditions: visual grading after ca. 3 weeks
Text: (§3) Seeds of mono- and dicotyledonous weed plants and crop plants were sown, in plastic or organic planting pots, in sandy loam and covered with soil. The compounds according to the invention, formulated in the form of wettable powders (WP) or as emulsifiable concentrates (EC), were applied to the surface of the covering soil as aqueous suspension or emulsion, with the addition of 0.5% of an additive, at an application rate of 600 l of water/ha (converted). Following treatment, the pots were placed in a greenhouse and kept under optimum growth conditions for the test plants. The visual grading of the damage to the test plants was carried out after ca. 3 weeks in comparison to untreated controls (herbicidal effect in percent (%): 100% effect=plants have died off, 0% effect=as control plants).

Poa annua (POAAN) [4] = assay: Herbicidal post-emergence action, section B (Table B7); conditions: visual rating about 3 weeks after treatment vs untreated controls; for pest or weed control at 1280 g/ha: Poa annua, post-emergence, 504 h, read-out: post-emergence activity against POAAN in %
Outline: as §2

Veronica persica (VERPE) = assay: Herbicidal pre-emergence action, section C (Table C10); conditions: visual grading after ca. 3 weeks
Text: as §3

[5] = tested on: Abutilon theophrasti (ABUTH); assay: Herbicidal pre-emergence action, section C (Table C1); conditions: visual grading after ca. 3 weeks vs untreated controls
Text: as §3

Setaria viridis (SETVI) = assay: Herbicidal post-emergence action, section B (Table B8); conditions: visual rating about 3 weeks after treatment vs untreated controls; for pest or weed control at 1280 g/ha / post-emergence activity against SETVI in %: application rate 1280 g/ha
Outline: as §2

Zea mays (ZEAMX) = assay: Pre-emergence effects on crop plants, section D (Table D1); conditions: visual grading after ca. 3 weeks
Outline: (§4)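 Formulated compound (wettable powder or emulsifiable concentrate) was applied pre-emergence to the soil surface at 320 g/ha or lower. Greenhouse-grown plants were rated visually for percent damage after ca. 3 weeks.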

[6] = tested on: Triticum aestivum (TRZAS); assay: Pre-emergence effects on crop plants, section D (Table D2); conditions: application rate 80 g/ha; visual grading after ca. 3 weeks
Outline: as §4

Glycine max (GLXMA) = assay: Post-emergence effects on crop plants, section F (Table F4); conditions: for post-emergence activity against GLXMA in %: crop plant damage; for percent crop plant damage at 320 g/ha: application rate 320 g/ha
Outline: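 Sandy loam, greenhouse, controlled conditions. Spray at single-leaf stage (2–3 wk post-sowing); WP/EC aqueous suspension/emulsion + 0.5% additive, 600 l water/ha; rate ≤320 g/ha. Visual scoring ca. 3 wk post-spray vs untreated, % effect.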

[7] = Veronica persica, pre-emergence, 504 h, application rate 320 g/ha, read-out: pre-emergence activity against VERPE in %
[8] = Abutilon theophrasti, pre-emergence, 504 h, application rate 320 g/ha, read-out: pre-emergence activity against ABUTH in %
[9] = Setaria viridis, post-emergence, 504 h, read-out: post-emergence activity against SETVI in %
[10] = Lolium rigidum, pre-emergence, 504 h, read-out: pre-emergence activity against LOLRI in %
[11] = Tripleurospermum inodorum, pre-emergence, 504 h, application rate 320 g/ha, read-out: pre-emergence activity against MATIN in %
[12] = Glycine max, 504 h, read-out: post-emergence activity against GLXMA in %

SMILES | pest or weed control at 320 g/ha (Poa annua (POAAN) [1]) [%] | pest or weed control at 1280 g/ha (Poa annua (POAAN) [4]; application rate 1280 g/ha) [%] | pest or weed control at 320 g/ha (Veronica persica (VERPE); [7]) [%] | pest or weed control at 320 g/ha [5, 8] [%] | pre-emergence activity against LOLRI in % (Lolium rigidum (LOLRI); application rate 320 g/ha) [%] | pre-emergence activity against POAAN in % (Poa annua (POAAN) [1]) [%] | post-emergence activity against AMARE in % [2] [%] | pre-emergence activity against ZEAMX in % (crop plant damage) (Zea mays (ZEAMX); application rate 80 g/ha) | post-emergence activity against SETVI in % (Setaria viridis (SETVI)) [%] | pre-emergence activity against TRZAS in % (crop plant damage) [6] [%] | pre-emergence activity against ZEAMX in % (crop plant damage) (Zea mays (ZEAMX); application rate 320 g/ha) [%] | post-emergence activity against POAAN in % (Poa annua (POAAN) [4]; application rate 320 g/ha) [%] | pest or weed control at 1280 g/ha (Lolium rigidum (LOLRI); [10]) [%] | other results
Cc1cc2c(nc1-c1ccccc1F)NCS2 [Example I-007, 5-(2-fluorophenyl)-6-methyl-2,3-dihydro[1,3]thiazolo[4,5-b]pyridine] | 100 | 90 | 80 | 80 | – | – | – | – | – | – | – | – | – | pest or weed control at 320 g/ha (Lolium rigidum (LOLRI); Lolium rigidum, pre-emergence, 504 h, application rate 320 g/ha, read-out: pre-emergence activity against LOLRI in %): 100%; pest or weed control at 1280 g/ha [2]: 90%; pest or weed control at 80 g/ha ([3]; Tripleurospermum inodorum, pre-emergence, 504 h, application rate 80 g/ha, read-out: pre-emergence activity against MATIN in %): 80%; pest or weed control at 1280 g/ha (Setaria viridis (SETVI); [9]): 90%
COCC1(C(=O)N2CSc3cc(C)c(-c4ccccc4F)nc32)CC(Cl)=NO1 (stereo not drawn) [Example I-128] | – | – | – | – | 100 | 100 | 90 | 0% | 90 | – | – | – | – | pre-emergence activity against MATIN in % ([3]; application rate 80 g/ha): 80%; post-emergence activity against POAAN in % (Poa annua (POAAN) [4]; application rate 1280 g/ha): 90%; pre-emergence activity against VERPE in % (Veronica persica (VERPE); application rate 80 g/ha): 80%; pre-emergence activity against ABUTH in % ([5]; application rate 80 g/ha): 80%
Cc1cc2c(nc1-c1ccccc1F)N(S(=O)(=O)Cc1ccc(F)cc1)CS2 [Example I-122] | – | – | – | – | 100 | 100 | 90 | – | 90 | 10 | 0 | 90 | – | post-emergence activity against GLXMA in % (Glycine max (GLXMA); application rate 80 g/ha): 10%; pre-emergence activity against MATIN in % ([3]; application rate 320 g/ha): 80%; pre-emergence activity against VERPE in % (Veronica persica (VERPE); application rate 320 g/ha): 80%
Cc1cc2c(nc1-c1ccccc1F)N(C(=O)C13CCCC1C(Cl)=NO3)CS2 (stereo not drawn) [Example I-104] | – | – | – | – | 100 | 100 | 90 | 0) % | 90 | 0 | – | 90 | – | pre-emergence activity against MATIN in % ([3]; application rate 800 g/ha (so in the source)): 90%; pre-emergence activity against ABUTH in % ([5]; application rate 320 g/ha): 80%
CCS(=O)(=O)N1CSc2cc(C)c(-c3ccccc3F)nc21 [Example I-060, 3-(ethylsulfonyl)-5-(2-fluorophenyl)-6-methyl-2,3-dihydro[1,3]thiazolo[4,5-b]pyridine] | 100 | 90 | – | – | – | – | – | 20% | – | – | – | – | 100 | pest or weed control at 320 g/ha [2]: 90%; pest or weed control at 320 g/ha [3, 11]: 90%; pest or weed control at 80 g/ha (Veronica persica (VERPE); Veronica persica, pre-emergence, 504 h, application rate 80 g/ha, read-out: pre-emergence activity against VERPE in %): 90%; pest or weed control at 80 g/ha ([5]; Abutilon theophrasti, pre-emergence, 504 h, application rate 80 g/ha, read-out: pre-emergence activity against ABUTH in %): 90%; pest or weed control at 320 g/ha (Setaria viridis (SETVI); Setaria viridis, post-emergence, 504 h, application rate 320 g/ha, read-out: post-emergence activity against SETVI in %): 90%
CC(C)C(=O)N1C[S+]([O-])c2cc(Br)c(-c3ccccc3)nc21 (stereo not drawn) [Example I-067] | – | – | 80 | – | – | – | – | – | – | 10 | 20 | – | – | percent crop plant damage at 320 g/ha (Glycine max (GLXMA); [12]): 10%; pest or weed control at 320 g/ha [3, 11]: 80%
CC(=O)N1CSc2cc(Br)c(-c3ccccc3Cl)nc21 [Example I-055, 1-[6-bromo-5-(2-chlorophenyl)[1,3]thiazolo[4,5-b]pyridin-3(2H)-yl]ethanone] | 100 | – | 80 | 80 | – | – | – | – | – | 0 | 0 | – | 100 | pest or weed control at 320 g/ha [2]: 90%; percent crop plant damage at 320 g/ha (Glycine max (GLXMA); [12]): 20%; pest or weed control at 1280 g/ha (Setaria viridis (SETVI); [9]): 90%
Cc1cc2c(nc1-c1ccccc1)N(C(=O)C1(C)CC(Cl)=NO1)CS2 (stereo not drawn) [Example I-088] | – | – | – | – | 100 | 100 | 90 | – | 90 | 0 | 0 | 90 | – | post-emergence activity against GLXMA in % (Glycine max (GLXMA); application rate 80 g/ha): 0%; pre-emergence activity against MATIN in % ([3]; application rate 320 g/ha): 90%; pre-emergence activity against ABUTH in % ([5]; application rate 320 g/ha): 90%
CC1(C(=O)N2CSc3cc(Br)c(-c4ccccc4Cl)nc32)CC(Cl)=NO1 (stereo not drawn) [Example I-141, [6-bromo-5-(2-chlorophenyl)[1,3]thiazolo[4,5-b]pyridin-3(2H)-yl](3-chloro-5-methyl-4,5-dihydro-1,2-oxazol-5-yl)methanone] | 100 | 90 | 90 | 90 | – | – | – | 0% | – | 0 | – | – | 100 | pest or weed control at 1280 g/ha [2]: 90%; percent crop plant damage at 80 g/ha (Glycine max (GLXMA); Glycine max, 504 h, application rate 80 g/ha, read-out: post-emergence activity against GLXMA in %): 20%
